Experimental data reported in patent US10570129B2 (Zoetis Services LLC, priority 2015, dated 2020).

How the values were obtained:
[1] = system: Haemonchus contortus L3; test: microbe, parasite or virus in culture; type: cell-based; details: Haemonchus contortus, 96 h, read-out: HcL3 Minimal Effective Concentration (MEC)
[2] = system: D. immitis microfilariae; test: Dirofilaria immitis, microfilariae (DiMF) in vitro motility assay; type: cell-based; details: Dirofilaria immitis, 72 h, read-out: DiMF minimally effective dose (MEC)

Work on `O=C(NCc1ccnc(Cl)c1)n1c2c(c3cccc(Cl)c31)CN(C/C=C/c1ccc(F)cc1)CC2` [Example 269, (E)-6-chloro-N-((2-chloropyridin-4-yl)methyl)-2-(3-(4-fluorophenyl)allyl)-1,2,3,4-tetrahydro-5H-pyrido[4,3-b]indole-5-carboxamide] yielded a minimal effective concentration [1] greater than 100 µM and a minimal effective concentration [2] of 3.3 µM.

For `COc1ccc(/C=C/CN2CCc3c(c4cccc(Cl)c4n3C(=O)NCc3ccnc(Cl)c3)C2)cc1` [Example 270, (E)-6-chloro-N-((2-chloropyridin-4-yl)methyl)-2-(3-(4-methoxyphenyl)allyl)-1,2,3,4-tetrahydro-5H-pyrido[4,3-b]indole-5-carboxamide], the minimal effective concentration [1] was greater than 100 µM and the minimal effective concentration [2] was 10 µM.

`O=C(NCc1ccnc(Cl)c1)n1c2c(c3cccc(Cl)c31)CN(C/C=C/c1ccc(OC(F)(F)F)cc1)CC2` [Example 271, (E)-6-chloro-N-((2-chloropyridin-4-yl)methyl)-2-(3-(4-(trifluoromethoxy)-phenyl)allyl)-1,2,3,4-tetrahydro-5H-pyrido[4,3-b]indole-5-carboxamide] was tested, and the minimal effective concentration [1] was greater than 100 µM and the minimal effective concentration [2] was 5.7 µM.

`O=C(NCc1ccnc(Cl)c1)n1c2c(c3cccc(Cl)c31)CN(C/C=C/c1ccc(C(F)(F)F)cc1)CC2` [Example 272, (E)-6-chloro-N-((2-chloropyridin-4-yl)methyl)-2-(3-(4-(trifluoromethyl)-phenyl)allyl)-1,2,3,4-tetrahydro-5H-pyrido[4,3-b]indole-5-carboxamide] was tested, and the minimal effective concentration [1] was greater than 100 µM and the minimal effective concentration [2] was 10 µM.

`O=C(NCc1cnc(Cl)s1)n1c2c(c3cccc(Cl)c31)CN(C/C=C/c1ccc(Cl)cc1)CC2` [Example 273, (E)-6-chloro-2-(3-(4-chlorophenyl)allyl)-N-((2-chlorothiazol-5-yl)methyl)-1,2,3,4-tetrahydro-5H-pyrido[4,3-b]indole-5-carboxamide] showed a minimal effective concentration [1] greater than 100 µM and a minimal effective concentration [2] of 18.2 µM.

With `O=C(NCc1ccnc(Cl)c1)n1c2c(c3cc(Cl)c(Cl)cc31)CN(C/C=C/c1ccc(Cl)c(F)c1)CC2` [Example 274, (E)-7,8-dichloro-2-(3-(4-chloro-3-fluorophenyl)allyl)-N-((2-chloropyridin-4-yl)methyl)-1,2,3,4-tetrahydro-5H-pyrido[4,3-b]indole-5-carboxamide] the minimal effective concentration [1] was 1.8 µM and the minimal effective concentration [2] was 33 µM.

`N#Cc1ccc(/C=C/CN2CCc3c(c4cc(Cl)c(Cl)cc4n3C(=O)NCc3ccnc(Cl)c3)C2)cc1F` [Example 275, (E)-7,8-dichloro-N-((2-chloropyridin-4-yl)methyl)-2-(3-(4-cyano-3-fluorophenyl)allyl)-1,2,3,4-tetrahydro-5H-pyrido[4,3-b]indole-5-carboxamide] was tested, and the minimal effective concentration [1] was 0.3 µM and the minimal effective concentration [2] was greater than 100 µM.

With `O=C(NCc1ccnc(Cl)c1)n1c2c(c3cc(Cl)c(Cl)cc31)CN(C/C=C/c1ccc(F)cc1F)CC2` [Example 276, (E)-7,8-dichloro-N-((2-chloropyridin-4-yl)methyl)-2-(3-(2,4-difluorophenyl)allyl)-1,2,3,4-tetrahydro-5H-pyrido[4,3-b]indole-5-carboxamide] the minimal effective concentration [1] was 0.3 µM and the minimal effective concentration [2] was 18.2 µM.

Compound `O=C(NCc1ccnc(Cl)c1)n1c2c(c3cc(Cl)c(Cl)cc31)CN(C/C=C/c1ccc(F)c(Cl)c1)CC2` [Example 277, (E)-7,8-dichloro-2-(3-(3-chloro-4-fluorophenyl)allyl)-N-((2-chloropyridin-4-yl)methyl)-1,2,3,4-tetrahydro-5H-pyrido[4,3-b]indole-5-carboxamide] has a minimal effective concentration [1] of 1 µM and a minimal effective concentration [2] greater than 100 µM.

Compound `O=C(NCc1ccnc(Cl)c1)n1c2c(c3cc(Cl)c(Cl)cc31)CN(C/C=C/c1ccc(F)c(F)c1)CC2` [Example 278, (E)-7,8-dichloro-N-((2-chloropyridin-4-yl)methyl)-2-(3-(3,4-difluorophenyl)allyl)-1,2,3,4-tetrahydro-5H-pyrido[4,3-b]indole-5-carboxamide] has a minimal effective concentration [1] of 1.8 µM and a minimal effective concentration [2] of 18.2 µM.

Work on `N#Cc1ccc(/C=C/CN2CCc3c(c4cc(Cl)c(Cl)cc4n3C(=O)NCc3ccnc(Cl)c3)C2)cc1` [Example 279, (E)-7,8-dichloro-N-((2-chloropyridin-4-yl)methyl)-2-(3-(4-cyanophenyl)allyl)-1,2,3,4-tetrahydro-5H-pyrido[4,3-b]indole-5-carboxamide] yielded a minimal effective concentration [1] of 1.8 µM and a minimal effective concentration [2] greater than 100 µM.

Work on `O=C(NCc1ccnc(Cl)c1)n1c2c(c3cc(Cl)c(Cl)cc31)CN(C/C=C/c1ccc(Cl)cc1)CC2` [Example 280, (E)-7,8-dichloro-2-(3-(4-chlorophenyl)allyl)-N-((2-chloropyridin-4-yl)methyl)-1,2,3,4-tetrahydro-5H-pyrido[4,3-b]indole-5-carboxamide] yielded a minimal effective concentration [1] of 0.3 µM and a minimal effective concentration [2] greater than 100 µM.

`O=C(NCc1ccnc(Cl)c1)n1c2c(c3cc(Cl)c(Cl)cc31)CN(C/C=C/c1ccc(Cl)c(Cl)c1)CC2` [Example 281, (E)-7,8-dichloro-N-((2-chloropyridin-4-yl)methyl)-2-(3-(3,4-dichlorophenyl)allyl)-1,2,3,4-tetrahydro-5H-pyrido[4,3-b]indole-5-carboxamide] was tested, and the minimal effective concentration [1] was 1 µM and the minimal effective concentration [2] was greater than 100 µM.

Work on `COc1ccc(/C=C/CN2CCc3c(c4cc(Cl)c(Cl)cc4n3C(=O)NCc3ccnc(Cl)c3)C2)cc1` [Example 283, (E)-7,8-dichloro-N-((2-chloropyridin-4-yl)methyl)-2-(3-(4-methoxyphenyl)allyl)-1,2,3,4-tetrahydro-5H-pyrido[4,3-b]indole-5-carboxamide] yielded a minimal effective concentration [1] of 0.5 µM and a minimal effective concentration [2] of 3.3 µM.

With `O=C(NCc1ccnc(Cl)c1)n1c2c(c3cc(Cl)c(Cl)cc31)CN(C/C=C/c1ccc(OC(F)(F)F)cc1)CC2` [Example 284, (E)-7,8-dichloro-N-((2-chloropyridin-4-yl)methyl)-2-(3-(4-(trifluoro-methoxy)phenyl)allyl)-1,2,3,4-tetrahydro-5H-pyrido[4,3-b]indole-5-carboxamide] the minimal effective concentration [1] was greater than 100 µM and the minimal effective concentration [2] was 10 µM.

Compound `O=C(NCc1ccnc(Cl)c1)n1c2c(c3cc(Cl)c(Cl)cc31)CN(C/C=C/c1ccc(C(F)(F)F)cc1)CC2` [Example 285, (E)-7,8-dichloro-N-((2-chloropyridin-4-yl)methyl)-2-(3-(4-(trifluoromethyl)-phenyl)allyl)-1,2,3,4-tetrahydro-5H-pyrido[4,3-b]indole-5-carboxamide] has a minimal effective concentration [1] greater than 100 µM and a minimal effective concentration [2] of 10 µM.

Work on `O=C(NCc1ccnc(F)c1)n1c2c(c3cc(Cl)c(Cl)cc31)CN(C/C=C/c1ccc(Cl)cc1)CC2` [Example 292, (E)-7,8-dichloro-2-(3-(4-chlorophenyl)allyl)-N-((2-fluoropyridin-4-yl)methyl)-1,2,3,4-tetrahydro-5H-pyrido[4,3-b]indole-5-carboxamide] yielded a minimal effective concentration [1] of 3.3 µM and a minimal effective concentration [2] of 5.7 µM.

`O=C(NCc1ccnc(F)c1)n1c2c(c3c(Cl)c(Cl)ccc31)CN(C/C=C/c1ccc(Cl)cc1)CC2` [Example 293, (E)-8,9-dichloro-2-(3-(4-chlorophenyl)allyl)-N-((2-fluoropyridin-4-yl)methyl)-1,2,3,4-tetrahydro-5H-pyrido[4,3-b]indole-5-carboxamide] was tested, and the minimal effective concentration [1] was 3.3 µM and the minimal effective concentration [2] was 5.7 µM.

Work on `O=C(NCc1cnc(Cl)s1)n1c2c(c3cc(Cl)c(Cl)cc31)CN(C/C=C/c1ccc(Cl)cc1)CC2` [Example 294, (E)-7,8-dichloro-2-(3-(4-chlorophenyl)allyl)-N-((2-chlorothiazol-5-yl)methyl)-1,2,3,4-tetrahydro-5H-pyrido[4,3-b]indole-5-carboxamide] yielded a minimal effective concentration [1] greater than 100 µM and a minimal effective concentration [2] of 10 µM.

For `O=C(NCc1cnc(Cl)s1)n1c2c(c3c(Cl)c(Cl)ccc31)CN(C/C=C/c1ccc(Cl)cc1)CC2` [Example 295, (E)-8,9-dichloro-2-(3-(4-chlorophenyl)allyl)-N-((2-chlorothiazol-5-yl)methyl)-1,2,3,4-tetrahydro-5H-pyrido[4,3-b]indole-5-carboxamide], the minimal effective concentration [1] was greater than 100 µM and the minimal effective concentration [2] was 18.2 µM.

For `N#Cc1cc2c(cc1Cl)c1c(n2C(=O)NCc2ccnc(Cl)c2)CCN(C/C=C/c2ccc(Cl)cc2)C1` [Example 296, (E)-8-chloro-2-(3-(4-chlorophenyl)allyl)-N-((2-chloropyridin-4-yl)methyl)-7-cyano-1,2,3,4-tetrahydro-5H-pyrido[4,3-b]indole-5-carboxamide], the minimal effective concentration [1] was 1 µM and the minimal effective concentration [2] was greater than 100 µM.

`O=C(NCc1ccnc(Cl)c1)n1c2c(c3cc(F)c(Cl)cc31)CN(C/C=C/c1ccc(Cl)c(F)c1)CC2` [Example 297, (E)-7-chloro-2-(3-(4-chloro-3-fluorophenyl)allyl)-N-((2-chloropyridin-4-yl)methyl)-8-fluoro-1,2,3,4-tetrahydro-5H-pyrido[4,3-b]indole-5-carboxamide] gave a minimal effective concentration [1] of 0.3 µM and a minimal effective concentration [2] greater than 100 µM.

For `N#Cc1ccc(/C=C/CN2CCc3c(c4cc(F)c(Cl)cc4n3C(=O)NCc3ccnc(Cl)c3)C2)cc1F` [Example 298, (E)-7-chloro-N-((2-chloropyridin-4-yl)methyl)-2-(3-(4-cyano-3-fluoro-phenyl)allyl)-8-fluoro-1,2,3,4-tetrahydro-5H-pyrido[4,3-b]indole-5-carboxamide], the minimal effective concentration [1] was 1.8 µM and the minimal effective concentration [2] was greater than 100 µM.

`O=C(NCc1ccnc(Cl)c1)n1c2c(c3cc(F)c(Cl)cc31)CN(C/C=C/c1ccc(F)cc1F)CC2` [Example 299, (E)-7-chloro-N-((2-chloropyridin-4-yl)methyl)-2-(3-(2,4-difluorophenyl)-allyl)-8-fluoro-1,2,3,4-tetrahydro-5H-pyrido[4,3-b]indole-5-carboxamide] was tested, and the minimal effective concentration [1] was 0.4 µM and the minimal effective concentration [2] was 1.8 µM.

`O=C(NCc1ccnc(Cl)c1)n1c2c(c3cc(F)c(Cl)cc31)CN(C/C=C/c1ccc(F)c(F)c1)CC2` [Example 300, (E)-7-chloro-N-((2-chloropyridin-4-yl)methyl)-2-(3-(3,4-difluorophenyl)-allyl)-8-fluoro-1,2,3,4-tetrahydro-5H-pyrido[4,3-b]indole-5-carboxamide] gave a minimal effective concentration [1] of 0.5 µM and a minimal effective concentration [2] of 10 µM.
